# Experimental data from paper PMC11898053, “Structure-Based Identification of Non-covalent Prolyl Oligopeptidase 80 Inhibitors Targeting Trypanosoma cruzi Cell Entry” (Journal of Chemical Information and Modeling, 2025).
# Like-named read-outs stand apart in the source and are kept apart here.
# How the values were obtained:
# recombinant POPTc80 = recombinant POPTc80 (Trypanosoma cruzi, UniProt Q4E132); assay: POPTc80 enzyme inhibition and kinetic assay (Suc-GPLGP-AMC fluorogenic substrate); type: biochemical
# Experimental: The enzyme activity was assessed using the fluorogenic substrate Suc-GPLGP-AMC previously described by Santana et al.[14] A total of 20 ng of pure recombinant POPTc80 was incubated with 20 μM Suc-GPLGP-AMC in a 25 mM HEPES buffer containing 5 mM DTT at pH 7.5. The release of AMC was monitored over a period of 20 min by measuring its emission at 460 nm, following excitation at 355 nm, using a 96-well microplate fluorescence reader (M5, Molecular Devices). The IC50 values were obtained by a series of at least 9 points from 200 to 0.01 μM of the compound, plus the control. The data were subjected to a four-parameter logistic (4 PL) nonlinear regression model using GraphPad Prism 8 software to calculate the IC50. […] Active enzyme concentration was determined by titration with a chloromethyl ketone irreversible inhibitor of POPTc80.[13] All kinetic parameters were determined by nonlinear regression employing the GraphPad Prism enzyme kinetics module and Hanes-Woolf plots.[64]
# [1] = test system: T. cruzi strain Y trypomastigotes; assay: Host cell infection inhibition assay (trypomastigote entry into L6 cells); type: cell-based, Trypanosoma cruzi; conditions: 1 h preincubation, 3 h infection, 72 h culture
# Experimental: The assay was performed as previously described by Grellier et al.,[15] with slight modifications. Briefly, L6 cells were seeded in flasks containing RPMI medium supplemented with 5% fetal bovine serum and 1% penicillin/streptomycin (Gibco 15140122) and incubated at 37 °C in a 5% CO2 atmosphere. Trypomastigotes of T. cruzi strain Y were preincubated for 1 h at 37 °C in a culture medium containing different concentrations of inhibitors (0–200 μM, five points). Subsequently, they were added to L6 cell cultures that had been previously grown for 24h in 96-well plates (1000 cells/well) at a trypomastigote-to-host cell ratio of 30:1. After 3 h incubation at 37 °C, the wells were washed three times with inhibitor-free culture medium, and the cells were maintained for 72 h without inhibitors before fixation and staining with panoptic stain. The percentage of infected cells was determined by counting at least 200 host cells under 400-fold magnification. The inhibition of host cell invasion was calculated by comparing the percentage of infected cells in treated wells to that in untreated control wells. The concentration required to inhibit 50% of invasion (EC50) was determined using a nonlinear regression model applied to dose–response curves in GraphPad Prism v.8.
# [2] = Cytotoxicity assay (resazurin); type: cell-based; conditions: rat, L6 cells, pH 7.4; 72 h incubation
# Experimental: L6 cells were cultured in 96-well plates at a density of 1 × 10^4 cells/well in 100 μL of RPMI 1640 medium supplemented with 10% heat-inactivated fetal bovine serum (FBS) and 25 mM HEPES pH 7.4, maintained at 37 °C, under a 5% CO2 atmosphere. After 24h, the compounds were diluted, starting at a concentration of 200 μM, in 100 μL of complete culture medium per well. Subsequently, 100 μL of the diluted compounds were added to the seeded cells. After 72 h of incubation, Resazurin solution (Sigma) was added to a final concentration of 20 μM and incubated for another 4h at 37 °C. Fluorescence was then measured at 570 nm (excitation) and 595 nm (emission) using a SpectraMax M5 microplate reader (Molecular Devices, Sunnyvale, CA, USA). The cytotoxic concentrations causing 50% inhibition of cell growth (CC50) were determined from data obtained in two independent experiments and calculated similarly to the EC50, as described above.
# POPTc80 = conditions: cited from earlier work
# T. cruzi = test system: T. cruzi; design: method as in PMID 11598112; conditions: phenotypic data; cited from earlier work
# [3] = 20 μM Suc-GPLGP-AMC, pH 7.5, means ± SD of three replications, read-out: POPTc80 IC50
# [4] = four compound and five substrate concentrations, means ± SD of three replications, read-out: POPTc80 Ki
# [5] = Trypanosoma cruzi, L6, inhibition of host cell invasion
# [6] = inhibition of host cell invasion
# recombinant POPTc80, sequence (Q4E132 entry or part of it): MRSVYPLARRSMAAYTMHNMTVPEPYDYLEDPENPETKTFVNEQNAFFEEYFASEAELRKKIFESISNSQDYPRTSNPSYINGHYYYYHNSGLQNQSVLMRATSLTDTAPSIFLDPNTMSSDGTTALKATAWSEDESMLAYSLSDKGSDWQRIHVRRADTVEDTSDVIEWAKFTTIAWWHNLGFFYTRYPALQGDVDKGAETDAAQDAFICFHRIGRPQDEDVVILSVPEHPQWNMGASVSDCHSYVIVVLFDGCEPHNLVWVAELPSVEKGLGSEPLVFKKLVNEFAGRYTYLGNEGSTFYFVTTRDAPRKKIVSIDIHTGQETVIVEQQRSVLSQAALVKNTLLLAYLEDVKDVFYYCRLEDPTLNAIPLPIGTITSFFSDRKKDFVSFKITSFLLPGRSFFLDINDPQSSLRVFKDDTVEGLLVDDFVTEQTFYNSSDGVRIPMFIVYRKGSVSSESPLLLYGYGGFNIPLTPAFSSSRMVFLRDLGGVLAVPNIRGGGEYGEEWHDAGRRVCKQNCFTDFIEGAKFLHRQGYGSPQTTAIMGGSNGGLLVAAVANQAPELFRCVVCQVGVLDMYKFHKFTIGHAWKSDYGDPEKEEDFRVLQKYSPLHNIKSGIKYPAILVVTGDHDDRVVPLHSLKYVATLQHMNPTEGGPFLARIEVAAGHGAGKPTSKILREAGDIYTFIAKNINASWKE
Structure (SMILES),IC50 (recombinant POPTc80; [3]) [µM],POPTc80 LE (ligand efficiency) (recombinant POPTc80) [kcal/mol per heavy atoms],"EC50 [1, 5] [µM]",CC50 at 72 h [2] [µM],other results
O=C(NCCc1cnn(-c2ccccc2)c1)C1CCCCN1C(=O)C1CC1 (stereo not drawn) [LC-39],> 20,–,–,–,–
O=C(NCCCc1nc2cc(Cl)ccc2[nH]1)C1CCCCN1C(=O)C1CC1 (stereo not drawn) [LC-40],> 20,–,–,–,–
O=C(NCCc1nccs1)C1CCCCN1C(=O)C1CC1 (stereo not drawn) [LC-41],> 20,–,–,–,–
O=C(NCCc1nc2cc(F)ccc2[nH]1)C1CCCCN1C(=O)C1CC1 (stereo not drawn) [LC-42],> 20,–,–,–,–
O=C(NCCOc1cccc2cccnc12)C1CCCCC1C(=O)N1CCCC1 (stereo not drawn) [LC-44],0.64 ± 0.1,0.33,92.5,> 200,"Ki (recombinant POPTc80; [4]): 0.175 ± 0.031 µM; EC50 [1, 6]: 92.4 ± 3.74 µM"
O=C(NCCc1cscn1)C1CCCCC1C(=O)N1CCCC1 (stereo not drawn) [LC-45],0.23 ± 0.08,0.44,46.7 ± 3.55,> 200,Ki (recombinant POPTc80; [4]): 0.054 ± 0.006 µM
O=C(NCCCc1ccccn1)C1CCCCC1C(=O)N1CCCC1 (stereo not drawn) [LC-46],0.4 ± 0.24,0.35,46.6 ± 20.8,> 200,Ki (recombinant POPTc80; [4]): 0.513 ± 0.218 µM
Cc1nc2ccc(CNC(=O)C3CCCCC3C(=O)N3CCCC3)cc2[nH]1 (stereo not drawn) [LC-47],–,0.30,–,–,"IC50 (recombinant POPTc80; read-out: POPTc80 IC50, 20 μM Suc-GPLGP-AMC, pH 7.5, means ± SD of three replications): 1.21 ± 0.32 µM; Ki (recombinant POPTc80; read-out: POPTc80 Ki, four compound and five substrate concentrations, means ± SD of three replications): 1.99 ± 0.26 µM"
O=C(NCCc1cnccn1)C1CCCCC1C(=O)N1CCCC1 (stereo not drawn) [LC-48],0.95 ± 0.1,–,–,–,–
Cc1csc(SCC(=O)N2CCCC2C(=O)N2CCOCC2)n1 (stereo not drawn) [LC-49],> 20,–,–,–,–
O=C(C1CCCN1C(=O)NCc1cc2ccccc2s1)N1CCOCC1 (stereo not drawn) [LC-50],–,0.31,80.2 ± 5.27,> 200,IC50 (recombinant POPTc80): 0.59 ± 0.19 µM; Ki (recombinant POPTc80): 0.44 ± 0.09 µM
Cn1c(CNC(=O)C2CCCCC2C(=O)N2CCCC2)nc2ccccc21 (stereo not drawn) [LC-53],0.27 ± 0.07,0.35,24.9 ± 3.45,> 200,Ki (recombinant POPTc80; [4]): 0.158 ± 0.044 µM
Cc1cccc(NC(=O)CC(=O)N2CCCC2C(=O)N2CCOCC2)c1 (stereo not drawn) [LC-54],> 20,–,–,–,–
O=C(C1CCCN1C(=O)CCCc1ccc(Cl)cc1)N1CCOCC1 (stereo not drawn) [LC-55],0.44 ± 0.08,0.35,16.2,> 200,"Ki (recombinant POPTc80; [4]): 0.83 ± 0.11 µM; EC50 [1, 6]: 18.6 ± 3.79 µM"
Cc1nn(C)c(C)c1CCC(=O)N1CCCC1C(=O)N1CCCCC1 (stereo not drawn) [LC-56],> 20,–,–,–,–
O=C(C1CCCN1C(=O)Cn1sc2ccccc2c1=O)N1CCCCC1 (stereo not drawn) [LC-57],> 20,–,–,–,–
"COC(OC)C1CCCN1C(=O)C1CCCN1C(=O)OCc1ccccc1 (stereo not drawn) [ZPPD, Z-P-prolinal dimethylacetal]",–,0.31,–,–,IC50 (POPTc80): 6.7 µM; Ki (POPTc80): 1.12 ± 0.12 µM; EC50 (T. cruzi): 250 µM
